Results taken from patent US10406227B2, “Photoactivated molecules for light-induced modulation of the activity of electrically excitable cells and methods of using same” (University of Southern California, priority 2012, dated 2019).
“Also recorded” adds a separate entry of the source.

Assays:
[1] = system: HEK293T cells; assay: Whole cell patch clamp, current-clamp membrane potential under blue light; format: cell-based, human
Method: Membrane potential was monitored using whole cell patch clamp in current-clamp mode. Cultured cells (INS and HEK293) were plated on a glass-bottomed culture dishes 1-3 days prior to recording. Cells were incubated in standard extracellular solution with or without 10 μM RubpyC17 compound for approximately 1.5-2 minutes, then washed and incubated with standard extracellular solution without additional supplementation, or with 2-5 mM ascorbate, 100 μM sodium ferrocyanide, or 100-200 μM potassium ferricyanide, as indicated. The chamber was transferred to the microscope stage. Extracellular solution consisted of 140 mM NaCl, 2.8 mM KCl, 10 mM HEPES, 1 mM MgCl2, 2 mM CaCl2, 10 mM glucose, pH adjusted to 7.3, and osmolarity adjusted to 300-310. Conventional whole-cell patch clamp recordings were performed with an EPC-9 amplifier and Pulse software (HEKA Electronics). Pipette electrodes of 1.8-3.5 Mohm were fire polished before use. Intracellular solution consisted of: 145 mM KCl, 10 mM NaCl, 1 mM MgCl2, 1 mM EGTA, 2 mM ATP, 0.3 mM GTP and 10 mM HEPES, pH adjusted to 7.3 and osmolarity adjusted to 290-300 mOsm. To monitor changes in membrane voltage/potential, cells were patch clamped in current-clamp mode. Access resistances were in the range of 3-8 Mohm. Using Pulse, membrane potentials were recorded before, during and after illumination by the argon ion laser at 488 nm with an irradiance value of 0.458 mE s^−1 m^−2 or by a xenon lamp source through a 470/40 nm bandpass excitation filter with an irradiance value of 0.480 mE s^−1 m^−2. […]
Initial attempts were tied to INS and HEK cells, both cells that are not excitable under normal conditions (INS cells were maintained in low glucose <3 mM to prevent action potentials). […] To monitor the plasma membrane potential, the cells were patch-clamped in whole-cell configuration in current-clamp mode and membrane voltages were recorded while illuminating the cell at 488 nm (0.46-0.48 mE s^−1 m^−2), though other wavelengths are useful, depending on the embodiment.

[2] = system: mouse chromaffin cells; assay: Carbon fiber amperometry of light-triggered secretion; format: cell-based
Method: Carbon fiber electrodes were prepared using established methodology and coupled to an EPC10 amplifier. A+800 mV constant voltage was applied to the electrode relative to the Ag/AgCl bath electrode. The amperometry recordings were sampled at 4 kHz using Pulsemaster (HEKA). Extracellular composition consisted of 120 mM NaCl, 20 mM KCl, 10 mM HEPES, 1 mM MgCl2, 2 mM CaCl2, 10 mM glucose, pH adjusted to 7.2-7.4, and osmolarity adjusted to 290-300. Light stimulation in the blue spectrum originated from a xenon lamp source through a 470/40 nm bandpass excitation filter. The duration of illumination varied and is indicated by bars on figures.
Action potential firing triggers secretion of norepinephrine and epinephrine from adrenal chromaffin cells, which can be readily detected by the technique of carbon-fiber amperometry, thus serving as a surrogate to detect action potential firing. […] Out of 18 RubpyC17-loaded cells tested, 15 cells (83%) experienced increased secretion by at least 100-fold during light illumination. Unlike the changes in light-induced depolarization, light-induced changes in secretion appeared to be more transient. One possible explanation for this is that at any moment in time, there are only a small number of release-competent vesicles—the so-called readily releasable pool of vesicles—and maintained stimulation causes rapid depletion of the readily releasable pool of vesicles in the initial phase of stimulation.

[3] = system: cell lines and primary cells; assay: Cell health / tolerance on RubpyC17 exposure (stable gigaseal, viability); format: cell-based
Method: However, in several embodiments, other organic ligands coupled to other transition metals are also used, with reduced and/or non-existent adverse side effects. […] Excessive and prolonged whole cell incubation with RubpyC17 (e.g., >10 μM for >5 min) may result in cell toxicity, since a stable gigaseal cannot be stably maintained in those cells. At this time, the mechanism behind the adverse effects on cell health upon RubpyC17 overexposure is not yet fully known. Since perforation was not achieved when a small patch of membrane was exposed to a high dose of RupbyC17, it was hypothesized that when an entire cell is overexposed to RubpyC17, there may be sufficient random interactions between excess RubpyC17 complex and endogenous surface molecules (i.e., proteins, carbohydrates, sugars), triggering signals that lead to cell health deterioration. However, when used in its appropriate dose range (e.g., <about 10 μM for cell lines and <about 2 μM for primary cells, according to one embodiment), RubpyC17 is tolerated by cells and consistently confers light sensitivity.

[4] = system: RCS rats; assay: Pupillary light reflex after intravitreal injection; format: in vivo, rat
From the text: FIG. 16 depicts the papillary light response in RCS rats.
This finding was reproduced in 3 of 3 RCS rats injected with Rubpy-C17, and in 2 of 2 control (sham injection) RCS rats.

[Ru(bpy)2(bpy-C17)](PF6)2 [RubpyC17]
light-induced depolarization ([1]; 10 μM ~2 min preincubation, 2 mM ascorbate, 488 nm): 14.6 ± 2.4 mV | light-induced hyperpolarization ([1]; 100 uM ferricyanide in extracellular solution): 20.9 ± 4.9 mV | light-induced depolarization with ferrocyanide as reductant ([1]; 0.1 mM ferrocyanide): light-induced depolarization was also observed | light-triggered secretion (amperometric spikes) ([2]; 2 μM RubpyC17, 488 nm): exhibited numerous amperometric current spikes | cells with increased secretion during light illumination ([2]; 15 of 18 RubpyC17-loaded cells): 83% | increase in secretion during light illumination ([2]; responding cells): at least 100 fold | tolerated dose range ([3]; cell lines): < 10 µM | whole cell incubation concentration that may result in cell toxicity ([3]; for >5 min, stable gigaseal not maintained): > 10 µM | viability of chromaffin cells ([3]; incubations of ˜30 min): continued viability | tolerated dose range ([3]; primary cells): < 2 µM | pupillary light reflex time ([4]; injected eye): < 3 s | pupillary light reflex ([4]; injected eye vs non-injected eye): vigorous pupillary light reflex was observed; also recorded: pupil constricts
